Legend:
[1] = tested on: NOX-S93 (L-RNA, aptamer, four 2'-deoxyribonucleotides (positions not given; Figure 1)) GCGUGAAUAGCCGUUGAAACGCCUUUAGAGAAGCACUAGCACGC; assay: neutralisation in S1PR3 calcium release cell assay, direct; conditions: UltraCHO medium, 20 mM Hepes
[2] = tested on: NOX-S93 (L-RNA, aptamer, four 2'-deoxyribonucleotides (positions not given; Figure 1)) GCGUGAAUAGCCGUUGAAACGCCUUUAGAGAAGCACUAGCACGC; assay: competition in S1PR3 calcium release cell assay; conditions: UltraCHO medium, 20 mM Hepes, 100 nM NOX-S93, 10 nM S1P

CCCCCCCC/C=C\CCCCCCCC(=O)OC[C@@H](O)COP(=O)(O)O
binding ([1]; 50 nM LPA, no inhibition): no

CCCCCCCCCCCC/C=C/[C@@H](O)[C@@H](N)COP(=O)(O)O
binding ([1]; 10 nM C17-S1P): yes

CCCCCCCCCCCCC/C=C/[C@@H](O)[C@@H](N)CO
binding ([2]; up to 1 μM competitor): no

CCCCCCCCCCCCC/C=C/[C@@H](O)[C@@H](N)COP(=O)(O)O
binding ([1]; 10 nM S1P): yes

CCCCCCCCCCCCC/C=C/[C@@H](O)[C@@H](N)COP(=O)([O-])OCC[N+](C)(C)C
binding ([2]; up to 300 nM competitor): no

CCCCCCCCCCCCC/C=C/[C@@H](O)[C@H](CO)NC(C)=O
binding ([2]; up to 3 μM competitor): no

CCCCCCCCCCCCC/C=C/[C@@H](O)[C@H](COP(=O)(O)O)NC(=O)CCCCCCCCCCCCCCC
binding ([2]; up to 3 μM competitor): no

CCCCCCCCCCCCCCC/C=C/[C@@H](O)[C@@H](N)COP(=O)(O)O
binding ([1]; 80 nM C20-S1P): yes

CCCCCCCCCCCCCCC[C@@H](O)[C@@H](N)COP(=O)(O)O
binding ([1]; 30 nM dihydro-S1P): yes

Source: PMC4109837 (2014)
